Measurements taken from US4774381A, “Herbicide resistant tobacco” (E. I. Du Pont de Nemours and Company, priority 1985, dated 1988).

What was measured:
[1] = target: T1, acetolactate synthase (ALS), Isolate 7 (+/+) extract (Nicotiana tabacum, UniProt P09114); experiment: ALS activity assay in cell extracts; format: biochemical; details: read-out: Uninhibited activity (%) in the Presence of Chlorsulfuron
T1 construct: ALS activity was then assayed in extracts prepared from these cell suspension cultures; endogenous in cells; host or cells: N. tabacum cv; Xanthi cell suspension cultures (H1 parental haploid line; +/+ segregants), 0-50% ammonium sulfate fraction of the extract
T1 sequence (P09114 92-664): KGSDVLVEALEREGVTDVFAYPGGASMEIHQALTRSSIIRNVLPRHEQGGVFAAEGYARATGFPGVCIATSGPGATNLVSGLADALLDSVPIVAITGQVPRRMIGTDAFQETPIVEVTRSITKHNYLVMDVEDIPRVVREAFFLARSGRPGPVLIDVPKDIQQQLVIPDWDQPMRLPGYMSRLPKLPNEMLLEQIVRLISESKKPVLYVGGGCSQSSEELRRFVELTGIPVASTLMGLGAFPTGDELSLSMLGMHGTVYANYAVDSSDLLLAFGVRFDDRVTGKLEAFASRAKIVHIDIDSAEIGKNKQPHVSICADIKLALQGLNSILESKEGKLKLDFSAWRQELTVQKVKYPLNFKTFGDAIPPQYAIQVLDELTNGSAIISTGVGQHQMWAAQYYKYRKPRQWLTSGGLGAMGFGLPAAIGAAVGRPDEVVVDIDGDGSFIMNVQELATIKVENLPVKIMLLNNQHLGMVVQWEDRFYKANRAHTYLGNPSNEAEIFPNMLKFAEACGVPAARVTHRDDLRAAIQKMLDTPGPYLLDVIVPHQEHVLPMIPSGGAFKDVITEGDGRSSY
Method: (§1) Cell suspension cultures of normal (H1) and homozygous mutant (Isolate 16) cell lines were washed in C1 liquid medium. After washing, cells were extracted in a 100 mM potassium phosphate buffer (pH 7.5) containing 0.5 mM MgCl2, 1 mM sodium pyruvate, 0.5 mM thiamine pyrophosphate, 10 micromolar flavine-adenine dinucleotide (FAD) and 10 percent (by volume) glycerol. Polyclar AT (BDH Chemicals Ltd) was added to a final concentration of 250 mg per gram fresh weight of tissue. After centrifugation at 27,000xg for 15 minutes at 4°, an equal volume of a saturated solution of amminium sulfate was added to the supernatant fraction. The resultant precipitate (representing a 0 to 50 percent ammonium sulfate fraction) was redissolved in 100 mM potassium phosphate buffer (pH 7.5) containing 0.5 mM MgCl2, 1 mM sodium pyruvate, and salts were removed by passage through a Sephadex G-25 (Pharmacia PD-10) column.
ALS activity was assayed in a total volume of 500 microliters containing 100 microliters of the column eluate, 65 mM potassium phosphate buffer (pH 7.5) containing 10 mM MgCl2, 40 mM sodium pyruvate, 250 micromolar thiamine pyrophosphate, 23 micromolar FAD, and 1, 5, 10, 50, 100, 500 or 1000 ppb chlorsulfuron or sulfometuron-methyl. […] Acetoin content was then measured by a modification of the procedure described by Westerfield, J. Biol. Chem. 161:495 (1945). […] Tubes were then centrifuged, and the optical density was read at 530 nm. Background optical densities, which were subtracted from the optical density values of the reactions, were determined for each extract from parallel assays to which the enzyme extract was added after the addition of 6N H2 SO4. Protein concentrations were measured with Bio-Rad Protein Assay reagent with bovine serum albumin as a standard. […]
Responses to chlorsulfuron were determined for ALS activities in extracts of cells suspension cultures derived from nine individuals that differed with resepct to the S4 mutation. […] Callus and plant phenotypes were determined by growth responses of cell cultures and seedlings, respectively, on herbicide-supplemented medium. […]

H1 (parent) callus = experiment: Callus growth test with chlorsulfuron and structural analogues; format: cell-based, Nicotiana tabacum; details: 10 ppb compound, 2 weeks in the dark
Method: (§2) In these growth tests, petri dishes containing C1 agar medium and 10 ppb of the sulfonamide herbicide chlorsulfuron and Compounds A through E were prepared. A sterile filter paper disc was placed in the center of each plate, and inoculated with 250 mg of callus tissue homozygous for the S4 mutation, or callus tissue derived from the haploid parent H1. The resulting cultures were incubated at 25° in the dark for 2 weeks. At the conclusion of the incubation period, filter discs containing callus cells were removed from culture dishes, placed on a Buchner funnel, and gentle suction applied to remove excess water. The resulting callus mass was then carefully scraped from the filter disc and weighed. Four replicates were included in each experiment.

S4/S4 callus = experiment: as above; format: cell-based, Nicotiana tabacum; details: 10 ppb compound, 2 weeks in the dark
Method: as §2

[2] = system: acetolactate synthase (ALS), Isolate 10 (S4/+) extract; experiment: ALS activity assay in cell extracts; format: biochemical, Nicotiana tabacum
Method: as §1
ALS activity was assayed in a total volume of 500 microliters containing 100 microliters of the column eluate, 65 mM potassium phosphate buffer (pH 7.5) containing 10 mM MgCl2, 40 mM sodium pyruvate, 250 micromolar thiamine pyrophosphate, 23 micromolar FAD, […] After incubation at 30° for 90 minutes, 250 microliters of 6N H2 SO4 was added to each assay tube, and the tubes were incubated at 55° for 10 minutes to terminate the enzymatic reaction and achieve complete conversion of acetolactate to acetoin. Acetoin content was then measured by a modification of the procedure described by Westerfield, J. Biol. Chem. 161:495 (1945). To each tube was added sequentially 100 microliters 50 percent NaOH, 150 microliters 0.5 percent creatine, and 150 microliters 5 percent alpha-napthol (in 2.5N NaOH). Color development was accelerated by incubation at 55° for 10 minutes. Tubes were then centrifuged, and the optical density was read at 530 nm. Background optical densities, which were subtracted from the optical density values of the reactions, were determined for each extract from parallel assays to which the enzyme extract was added after the addition of 6N H2 SO4. Protein concentrations were measured with Bio-Rad Protein Assay reagent with bovine serum albumin as a standard. Data points and specific activities, which are set forth below and in FIG. 2, represent the average values of at least three independent determinations. ALS activities are presented in FIG. 2 as percent activity in the absence of herbicide.
Responses to chlorsulfuron were determined for ALS activities in extracts of cells suspension cultures derived from nine individuals that differed with resepct to the S4 mutation. As described above, these individuals were produced by self-fertilization of an S4/+ heterozygote, and their genotypes were established by means of progeny analysis. Callus and plant phenotypes were determined by growth responses of cell cultures and seedlings, respectively, on herbicide-supplemented medium. […] In contrast, all individuals homozygous for the S4 mutation contained a highly resistant form of the enzyme. […] The correlation between both callus and plant phenotype and the response of ALS activity in vitro to the herbicide is both absolute and quantitative.

COc1nc(C)nc(NC(=O)NS(=O)(=O)c2ccccc2Cl)n1 [Chlorsulfuron, chlorsulfuron] gave a remaining ALS activity (% of uninhibited) at 0.01 ppm ([1]; 10 ppb) of 36%, a remaining ALS activity (% of uninhibited) at 0.03 ppm ([1]; 30 ppb) of 22% and a remaining ALS activity (% of uninhibited) at 0.1 ppm ([1]; 100 ppb) of 16%. The “Mean Fresh Weight” value (H1 (parent) callus) was 0 g, the “Mean Fresh Weight” value (S4/S4 callus) was 4.42 g and the “Uninhibited activity (%) in the Presence of Chlorsulfuron” value (“Uninhibited activity (%)” below) ([2]; 10 ppb) was 61%. For the same compound, the “Uninhibited activity (%)” value ([2]; 30 ppb) was 52% and the “Uninhibited activity (%)” value ([2]; 100 ppb) was 45%.
